The values that follow come from patent US20100255530A1, “BACTERIA DETECTION AND/OR IDENTIFICATION MEDIUM” (BIOMERIEUX, priority 2007, published 2010).

This test relates to Citrobacter freundii 009. In words: Impact of cellobiose on colony coloration, Citrobacter freundii 009. Format: cell-based. To be noted: cellobiose 0.5 g/l in medium combining the glucuronide and galactoside substrates. An excerpt: The coloration of these colonies is noted.

`O=C[C@H](O)[C@@H](O)[C@H](O[C@@H]1O[C@H](CO)[C@@H](O)[C@H](O)[C@H]1O)[C@H](O)CO` [cellobiose]: the “distinction of the Citrobacter 009 strain from the E. coli strains” value is recorded as “makes it possible to distinguish the Citrobacter 009 strain more clearly from the E. coli strains”.
